Measurements: ChEMBL document CHEMBL1144565, “Anti-breast cancer activity of LFM-A13, a potent inhibitor of Polo-like kinase (PLK)” (Bioorg Med Chem, 2007)
Calls of active or inactive are those of the source. The calls are words filed in the database; no cut-off is given here.

Tests used:
[1] = target: Cyclin-dependent kinase 1 (Homo sapiens, UniProt P06493); experiment: Inhibition of CDK1
Mus musculus [2] = experiment: Subacute toxicity in CD1 mouse assessed as absolute lymphocyte counts at 10 mg/kg, ip after 30 days; assay type: organism-based; parameters: dose 10 mg/kg, route intraperitoneal; conditions: in vivo, 720 h
Mus musculus [3] = experiment: Effect on non-proliferating tissue in ip dosed CD1 mouse assessed as toxic lesions in brain; assay type: ADME, organism-based; conditions: in vivo
[4] = target: Mitogen-activated protein kinase 1 (Homo sapiens, UniProt P28482); experiment: Inhibition of MAPK1
Danio rerio = species on record: Danio rerio; experiment: Effect on cell division blockade in zebrafish two-cell stage embryo assessed as proliferation arrest at 16-cell stage at 500 uM after 30 to 35 mins; assay type: functional, organism-based
Rattus norvegicus [5] = experiment: Effect on non-proliferating tissue in iv dosed Lewis rat assessed as toxic lesions in myocardium on day 7; assay type: ADME, organism-based; conditions: in vivo
Mus musculus [6] = experiment: Subacute toxicity in CD1 mouse assessed as myeloid or lymphoid hyperplasia in bone marrow at 40 mg/kg, ip after 30 days; assay type: organism-based; parameters: dose 40 mg/kg, route intraperitoneal; conditions: in vivo, 720 h
PTK1 [7] = experiment: Antiproliferative activity against anaphase PTK1 cells assessed as delay in mitosis completion; assay type: functional, cell-based; conditions: Potorous tridactylus
Mus musculus [8] = experiment: Effect on non-proliferating tissue in po dosed BALB/c mouse assessed as toxic lesions in kidney; assay type: ADME, organism-based; conditions: in vivo
Mus musculus [9] = experiment: Subacute toxicity in CD1 mouse assessed as WBC counts at 40 mg/kg, ip after 30 days; assay type: organism-based; parameters: dose 40 mg/kg, route intraperitoneal; conditions: in vivo, 720 h
[10] = target: Phosphatidylinositol 4,5-bisphosphate 3-kinase catalytic subunit gamma isoform (Homo sapiens, UniProt P48736); experiment: Inhibition of PI3Kgamma
Mus musculus [11] = experiment: Acute toxicity in CD1 mouse assessed as absolute lymphocyte counts at 40 mg/kg, ip after 7 days; assay type: organism-based; parameters: dose 40 mg/kg, route intraperitoneal; conditions: in vivo, 168 h
Mus musculus [12] = experiment: Toxicity in ip dosed CD1 mouse; assay type: organism-based; conditions: in vivo
Mus musculus [13] = experiment: Acute toxicity in CD1 mouse assessed as absolute lymphocyte counts at 80 mg/kg, ip after 7 days; assay type: organism-based; parameters: dose 80 mg/kg, route intraperitoneal; conditions: in vivo, 168 h
Mus musculus [14] = experiment: Acute toxicity in CD1 mouse assessed as absolute neutrophil counts at 10 mg/kg, ip after 7 days; assay type: organism-based; parameters: dose 10 mg/kg, route intraperitoneal; conditions: in vivo, 168 h
[15] = target: Hepatocyte growth factor receptor (Homo sapiens, UniProt P08581); experiment: Inhibition of Met kinase
Chain of Hepatocyte growth factor receptor (P08581 whole entry): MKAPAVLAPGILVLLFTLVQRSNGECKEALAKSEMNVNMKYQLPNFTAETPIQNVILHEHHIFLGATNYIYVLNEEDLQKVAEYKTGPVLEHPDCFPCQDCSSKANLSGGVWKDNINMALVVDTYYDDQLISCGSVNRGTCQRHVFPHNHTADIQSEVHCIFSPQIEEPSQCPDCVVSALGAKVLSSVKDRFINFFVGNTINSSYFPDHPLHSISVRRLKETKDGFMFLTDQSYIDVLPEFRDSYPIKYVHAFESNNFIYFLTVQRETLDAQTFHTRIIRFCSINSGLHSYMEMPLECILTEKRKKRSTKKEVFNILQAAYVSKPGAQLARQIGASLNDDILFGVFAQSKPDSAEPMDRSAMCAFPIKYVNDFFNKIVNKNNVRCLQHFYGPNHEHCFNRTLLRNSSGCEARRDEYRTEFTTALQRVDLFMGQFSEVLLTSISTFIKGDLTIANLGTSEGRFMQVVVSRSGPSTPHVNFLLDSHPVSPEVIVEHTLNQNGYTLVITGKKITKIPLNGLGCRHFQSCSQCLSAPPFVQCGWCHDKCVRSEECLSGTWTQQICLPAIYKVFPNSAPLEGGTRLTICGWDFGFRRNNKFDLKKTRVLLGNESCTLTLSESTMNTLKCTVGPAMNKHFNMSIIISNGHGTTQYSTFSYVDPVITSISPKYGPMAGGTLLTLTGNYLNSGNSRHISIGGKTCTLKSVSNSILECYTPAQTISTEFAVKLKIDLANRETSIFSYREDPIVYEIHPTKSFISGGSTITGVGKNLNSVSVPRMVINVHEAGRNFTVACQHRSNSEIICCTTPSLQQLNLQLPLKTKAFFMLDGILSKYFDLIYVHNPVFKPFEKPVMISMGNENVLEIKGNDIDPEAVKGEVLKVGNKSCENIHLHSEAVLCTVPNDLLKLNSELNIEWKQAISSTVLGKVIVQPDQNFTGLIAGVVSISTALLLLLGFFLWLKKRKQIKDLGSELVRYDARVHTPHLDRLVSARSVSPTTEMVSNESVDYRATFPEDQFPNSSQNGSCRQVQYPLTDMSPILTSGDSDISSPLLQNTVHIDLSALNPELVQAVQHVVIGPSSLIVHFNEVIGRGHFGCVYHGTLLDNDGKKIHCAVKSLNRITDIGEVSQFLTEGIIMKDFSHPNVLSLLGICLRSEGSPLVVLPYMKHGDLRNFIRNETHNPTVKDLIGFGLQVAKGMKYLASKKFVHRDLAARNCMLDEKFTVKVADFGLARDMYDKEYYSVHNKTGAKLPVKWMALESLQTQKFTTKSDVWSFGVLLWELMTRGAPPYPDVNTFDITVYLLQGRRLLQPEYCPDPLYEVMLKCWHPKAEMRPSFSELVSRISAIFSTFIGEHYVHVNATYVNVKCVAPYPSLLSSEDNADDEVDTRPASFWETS

Rattus norvegicus [16] = experiment: Toxicity in Lewis rat assessed as absolute neutrophil counts at 40 mg/kg, iv after 7 days; assay type: organism-based; parameters: dose 40 mg/kg, route intravenous; conditions: in vivo, 168 h
Rattus norvegicus [17] = experiment: Toxicity in Lewis rat assessed as myeloid or lymphoid hyperplasia in bone marrow at 80 mg/kg, iV after 7 days; assay type: organism-based; parameters: dose 80 mg/kg, route intravenous; conditions: in vivo, 168 h
Mus musculus [18] = experiment: Acute toxicity in CD1 mouse assessed as absolute lymphocyte counts at 10 mg/kg, ip after 7 days; assay type: organism-based; parameters: dose 10 mg/kg, route intraperitoneal; conditions: in vivo, 168 h
Mus musculus [19] = experiment: Subacute toxicity in CD1 mouse assessed as absolute neutrophil counts at 40 mg/kg, ip after 30 days; assay type: organism-based; parameters: dose 40 mg/kg, route intraperitoneal; conditions: in vivo, 720 h
Rattus norvegicus [20] = experiment: Toxicity in Lewis rat assessed as WBC counts at 40 mg/kg, iv after 7 days; assay type: organism-based; parameters: dose 40 mg/kg, route intravenous; conditions: in vivo, 168 h
Mus musculus [21] = experiment: Toxicity in daily po dosed BALB/c mouse; assay type: organism-based; conditions: in vivo
Mus musculus [22] = experiment: Acute toxicity in CD1 mouse assessed as absolute neutrophil counts at 80 mg/kg, ip after 7 days; assay type: organism-based; parameters: dose 80 mg/kg, route intraperitoneal; conditions: in vivo, 168 h
Rattus norvegicus [23] = experiment: Toxicity in Lewis rat assessed as absolute neutrophil counts at 20 mg/kg, iv after 7 days; assay type: organism-based; parameters: dose 20 mg/kg, route intravenous; conditions: in vivo, 168 h
Mus musculus [24] = experiment: Subacute toxicity in CD1 mouse assessed as myeloid or lymphoid hyperplasia in bone marrow at 80 mg/kg, ip after 30 days; assay type: organism-based; parameters: dose 80 mg/kg, route intraperitoneal; conditions: in vivo, 720 h
[25] = target: Tyrosine-protein kinase JAK2 (Homo sapiens, UniProt O60674); experiment: Inhibition of JAK2
Mus musculus [26] = experiment: Acute toxicity in CD1 mouse assessed as myeloid or lymphoid hyperplasia in bone marrow at 20 mg/kg, ip after 7 days; assay type: organism-based; parameters: dose 20 mg/kg, route intraperitoneal; conditions: in vivo, 168 h
Mus musculus [27] = experiment: Effect on non-proliferating tissue in ip dosed CD1 mouse assessed as toxic lesions in myocardium; assay type: ADME, organism-based; conditions: in vivo
Mus musculus [28] = experiment: Subacute toxicity in CD1 mouse assessed as absolute lymphocyte counts at 20 mg/kg, ip after 30 days; assay type: organism-based; parameters: dose 20 mg/kg, route intraperitoneal; conditions: in vivo, 720 h
Mus musculus [29] = experiment: Subacute toxicity in CD1 mouse assessed as WBC counts at 80 mg/kg, ip after 30 days; assay type: organism-based; parameters: dose 80 mg/kg, route intraperitoneal; conditions: in vivo, 720 h
Rattus norvegicus [30] = experiment: Effect on non-proliferating tissue in iv dosed Lewis rat assessed as toxic lesions in kidney on day 7; assay type: ADME, organism-based; conditions: in vivo
Rattus norvegicus [31] = experiment: Toxicity in Lewis rat assessed as absolute neutrophil counts at 80 mg/kg, iv after 7 days; assay type: organism-based; parameters: dose 80 mg/kg, route intravenous; conditions: in vivo, 168 h
[32] = target: T1, Serine/threonine-protein kinase PLK3 (Homo sapiens, UniProt Q9H4B4); experiment: Inhibition of human PLK3
T1 sequence (Q9H4B4 whole entry): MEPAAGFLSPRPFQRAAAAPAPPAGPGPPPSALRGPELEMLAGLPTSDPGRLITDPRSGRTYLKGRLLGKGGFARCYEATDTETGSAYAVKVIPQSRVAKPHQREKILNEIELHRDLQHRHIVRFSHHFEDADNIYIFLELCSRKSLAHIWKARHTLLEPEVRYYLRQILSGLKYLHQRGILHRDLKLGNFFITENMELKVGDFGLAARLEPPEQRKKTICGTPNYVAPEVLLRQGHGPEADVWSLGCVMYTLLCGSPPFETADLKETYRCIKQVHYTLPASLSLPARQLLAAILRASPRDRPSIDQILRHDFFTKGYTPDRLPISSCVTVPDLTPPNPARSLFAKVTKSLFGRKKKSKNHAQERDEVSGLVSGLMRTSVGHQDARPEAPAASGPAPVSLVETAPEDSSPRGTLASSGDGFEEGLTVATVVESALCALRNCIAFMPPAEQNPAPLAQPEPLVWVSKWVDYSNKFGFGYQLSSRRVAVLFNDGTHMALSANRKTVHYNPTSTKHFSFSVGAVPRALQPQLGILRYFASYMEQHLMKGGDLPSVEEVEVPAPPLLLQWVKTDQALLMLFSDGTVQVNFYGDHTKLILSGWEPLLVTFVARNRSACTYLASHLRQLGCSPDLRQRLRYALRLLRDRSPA

Mus musculus [33] = experiment: Acute toxicity in CD1 mouse assessed as WBC counts at 10 mg/kg, ip after 7 days; assay type: organism-based; parameters: dose 10 mg/kg, route intraperitoneal; conditions: in vivo, 168 h
Mus musculus [34] = experiment: Acute toxicity in CD1 mouse assessed as myeloid or lymphoid hyperplasia in bone marrow at 40 mg/kg, ip after 7 days; assay type: organism-based; parameters: dose 40 mg/kg, route intraperitoneal; conditions: in vivo, 168 h
[35] = target: Protein-tyrosine kinase 6 (Homo sapiens, UniProt Q13882); experiment: Inhibition of BRK
Chain of Protein-tyrosine kinase 6 (Q13882 whole entry): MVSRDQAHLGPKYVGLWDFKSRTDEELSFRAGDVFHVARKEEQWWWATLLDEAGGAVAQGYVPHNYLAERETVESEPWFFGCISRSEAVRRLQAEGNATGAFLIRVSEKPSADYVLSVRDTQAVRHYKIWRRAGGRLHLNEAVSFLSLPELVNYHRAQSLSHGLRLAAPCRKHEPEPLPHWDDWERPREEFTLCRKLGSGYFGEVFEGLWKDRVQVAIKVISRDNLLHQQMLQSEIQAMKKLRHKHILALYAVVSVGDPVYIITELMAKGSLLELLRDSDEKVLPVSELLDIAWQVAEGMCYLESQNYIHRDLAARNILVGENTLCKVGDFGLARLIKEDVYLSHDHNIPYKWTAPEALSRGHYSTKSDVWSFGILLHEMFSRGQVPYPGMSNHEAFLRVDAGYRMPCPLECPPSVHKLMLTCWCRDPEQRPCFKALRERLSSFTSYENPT

[36] = target: Cyclin-dependent kinase 3 (Homo sapiens, UniProt Q00526); experiment: Inhibition of CDK3
Chain of Cyclin-dependent kinase 3 (Q00526 whole entry): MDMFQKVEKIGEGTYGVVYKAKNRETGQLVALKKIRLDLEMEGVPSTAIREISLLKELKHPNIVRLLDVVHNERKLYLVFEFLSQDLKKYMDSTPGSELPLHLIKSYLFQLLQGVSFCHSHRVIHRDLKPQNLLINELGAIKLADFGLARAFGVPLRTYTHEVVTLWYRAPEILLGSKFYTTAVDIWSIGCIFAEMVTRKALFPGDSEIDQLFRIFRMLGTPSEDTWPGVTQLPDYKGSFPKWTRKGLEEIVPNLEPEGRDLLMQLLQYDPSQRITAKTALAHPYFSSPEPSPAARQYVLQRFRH

PTK1 [37] = experiment: Antiproliferative activity against prometaphase PTK1 cells assessed as complete arrest at 1 mM within 50 mins; assay type: functional, cell-based; conditions: Potorous tridactylus
[38] = target: Inhibitor of NF-kappa-B kinase (IKK) (Homo sapiens, UniProt O14920+O15111+Q9Y6K9); experiment: Inhibition of IKK; assay type: protein-complex assay
Chain of Inhibitor of NF-kappa-B kinase (IKK) (O14920 whole entry): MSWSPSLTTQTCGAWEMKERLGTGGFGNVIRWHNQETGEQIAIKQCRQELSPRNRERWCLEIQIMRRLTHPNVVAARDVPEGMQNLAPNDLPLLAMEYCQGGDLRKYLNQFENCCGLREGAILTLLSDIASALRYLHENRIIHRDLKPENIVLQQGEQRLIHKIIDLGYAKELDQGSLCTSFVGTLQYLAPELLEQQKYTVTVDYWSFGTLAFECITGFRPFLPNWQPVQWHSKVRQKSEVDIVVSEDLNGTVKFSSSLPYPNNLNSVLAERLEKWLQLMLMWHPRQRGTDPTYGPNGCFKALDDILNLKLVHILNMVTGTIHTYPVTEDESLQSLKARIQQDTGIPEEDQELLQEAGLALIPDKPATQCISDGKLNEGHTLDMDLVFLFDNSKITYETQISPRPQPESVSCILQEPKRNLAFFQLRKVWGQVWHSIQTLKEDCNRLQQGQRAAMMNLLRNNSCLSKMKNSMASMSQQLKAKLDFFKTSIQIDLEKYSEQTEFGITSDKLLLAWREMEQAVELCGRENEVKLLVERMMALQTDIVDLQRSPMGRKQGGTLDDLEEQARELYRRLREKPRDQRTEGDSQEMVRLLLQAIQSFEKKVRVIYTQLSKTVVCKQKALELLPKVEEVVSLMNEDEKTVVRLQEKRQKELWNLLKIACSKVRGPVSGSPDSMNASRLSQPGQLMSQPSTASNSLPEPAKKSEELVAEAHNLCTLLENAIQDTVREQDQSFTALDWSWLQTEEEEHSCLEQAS
Chain of Inhibitor of NF-kappa-B kinase (IKK) (O15111 whole entry): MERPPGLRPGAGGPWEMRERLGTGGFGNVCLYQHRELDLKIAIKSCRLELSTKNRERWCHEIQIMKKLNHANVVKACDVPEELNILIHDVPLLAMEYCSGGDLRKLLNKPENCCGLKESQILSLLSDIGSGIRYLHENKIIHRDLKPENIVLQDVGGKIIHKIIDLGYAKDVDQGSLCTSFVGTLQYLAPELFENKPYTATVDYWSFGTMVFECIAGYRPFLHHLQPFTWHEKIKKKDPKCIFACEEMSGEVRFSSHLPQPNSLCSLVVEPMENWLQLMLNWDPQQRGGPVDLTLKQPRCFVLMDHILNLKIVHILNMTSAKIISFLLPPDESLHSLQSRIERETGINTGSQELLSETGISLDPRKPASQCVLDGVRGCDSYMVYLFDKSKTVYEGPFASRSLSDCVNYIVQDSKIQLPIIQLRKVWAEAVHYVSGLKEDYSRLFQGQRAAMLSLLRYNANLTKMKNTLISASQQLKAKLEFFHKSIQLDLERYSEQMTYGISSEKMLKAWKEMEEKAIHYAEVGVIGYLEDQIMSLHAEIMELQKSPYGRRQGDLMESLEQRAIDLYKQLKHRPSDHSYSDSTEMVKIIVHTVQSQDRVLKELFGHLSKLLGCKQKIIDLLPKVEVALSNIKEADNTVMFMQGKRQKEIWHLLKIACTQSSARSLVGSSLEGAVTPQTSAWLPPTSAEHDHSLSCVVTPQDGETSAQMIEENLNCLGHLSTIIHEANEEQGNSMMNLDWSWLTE
Chain of Inhibitor of NF-kappa-B kinase (IKK) (Q9Y6K9 whole entry): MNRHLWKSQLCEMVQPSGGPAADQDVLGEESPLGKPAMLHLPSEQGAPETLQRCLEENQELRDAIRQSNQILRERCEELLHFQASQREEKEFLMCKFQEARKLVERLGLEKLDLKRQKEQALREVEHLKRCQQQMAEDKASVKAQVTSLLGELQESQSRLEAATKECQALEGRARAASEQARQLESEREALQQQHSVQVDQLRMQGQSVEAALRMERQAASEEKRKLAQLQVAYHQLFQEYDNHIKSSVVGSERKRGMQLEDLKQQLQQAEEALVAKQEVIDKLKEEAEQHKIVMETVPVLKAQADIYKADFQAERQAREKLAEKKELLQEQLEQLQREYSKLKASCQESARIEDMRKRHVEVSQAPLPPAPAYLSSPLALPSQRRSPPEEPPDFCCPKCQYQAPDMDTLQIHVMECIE

Rattus norvegicus [39] = experiment: Toxicity in iv dosed Lewis rat; assay type: organism-based; conditions: in vivo
Rattus norvegicus [40] = experiment: Effect on non-proliferating tissue in iv dosed Lewis rat assessed as toxic lesions in lung on day 7; assay type: ADME, organism-based; conditions: in vivo
Mus musculus [41] = experiment: Acute toxicity in CD1 mouse assessed as absolute neutrophil counts at 20 mg/kg, ip after 7 days; assay type: organism-based; parameters: dose 20 mg/kg, route intraperitoneal; conditions: in vivo, 168 h
Mus musculus [42] = experiment: Effect on non-proliferating tissue in po dosed BALB/c mouse assessed as toxic lesions in lung; assay type: ADME, organism-based; conditions: in vivo
Mus musculus [43] = experiment: Subacute toxicity in CD1 mouse assessed as absolute neutrophil counts at 80 mg/kg, ip after 30 days; assay type: organism-based; parameters: dose 80 mg/kg, route intraperitoneal; conditions: in vivo, 720 h
[44] = target: T1, Serine/threonine-protein kinase PLK3; experiment: Inhibition of human PLK3 in presence of 25 uM ATP
Mus musculus [45] = experiment: Subacute toxicity in CD1 mouse assessed as absolute lymphocyte counts at 80 mg/kg, ip after 30 days; assay type: organism-based; parameters: dose 80 mg/kg, route intraperitoneal; conditions: in vivo, 720 h
U-373MG ATCC = experiment: Induction of aberrant monopolar and multipolar spindle formation in human U373 cells at 100 uM; assay type: functional, cell-based
Mus musculus [46] = experiment: Effect on non-proliferating tissue in po dosed BALB/c mouse assessed as toxic lesions in myocardium; assay type: ADME, organism-based; conditions: in vivo

Chain of Cyclin-dependent kinase 1 (P06493 whole entry): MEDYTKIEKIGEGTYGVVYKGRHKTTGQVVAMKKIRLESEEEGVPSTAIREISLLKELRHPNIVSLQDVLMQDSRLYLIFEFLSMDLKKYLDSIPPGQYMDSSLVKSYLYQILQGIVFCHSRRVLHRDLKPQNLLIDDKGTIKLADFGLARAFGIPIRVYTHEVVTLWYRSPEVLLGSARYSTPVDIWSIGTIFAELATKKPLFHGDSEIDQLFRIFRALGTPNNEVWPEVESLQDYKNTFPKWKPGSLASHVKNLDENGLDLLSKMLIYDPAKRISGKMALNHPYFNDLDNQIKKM

C/C(O)=C(\C#N)C(=O)Nc1cc(Br)ccc1Br
IC50 [1]: > 500 µM
Activity (Mus musculus [2]): 4.4 10^9/L
Activity (Mus musculus [3]): Non-toxic
IC50 [4]: > 500 µM
Activity (Danio rerio): Active
Activity (Rattus norvegicus [5]): Non-toxic
Activity (Mus musculus [6]): Non-toxic
Activity (PTK1 [7]): Active
Activity (Mus musculus [8]): Non-toxic
Activity (Mus musculus [9]): 6.4 10^9/L
IC50 [10]: > 500 µM
Activity (Mus musculus [11]): 5.2 10^9/L
LD10 (Mus musculus [12]): > 80 mg/kg
Activity (Mus musculus [13]): 4.6 10^9/L
Activity (Mus musculus [14]): 1.3 10^9/L
IC50 [15]: 215 µM
Activity (Rattus norvegicus [16]): 2.1 10^9/L
Activity (Rattus norvegicus [17]): Non-toxic
Activity (Mus musculus [18]): 5.4 10^9/L
Activity (Mus musculus [19]): 1 10^9/L
Activity (Rattus norvegicus [20]): 12.9 10^9/L
LD10 (Mus musculus [21]): > 200 mg/kg
Activity (Mus musculus [22]): 1.7 10^9/L
Activity (Rattus norvegicus [23]): 1.6 10^9/L
Activity (Mus musculus [24]): Non-toxic
IC50 [25]: > 500 µM
Activity (Mus musculus [26]): Non-toxic
Activity (Mus musculus [27]): Non-toxic
Activity (Mus musculus [28]): 3.9 10^9/L
Activity (Mus musculus [29]): 6.1 10^9/L
Activity (Rattus norvegicus [30]): Non-toxic
Activity (Rattus norvegicus [31]): 1.8 10^9/L
IC50 [32]: 61 µM
Activity (Mus musculus [33]): 7 10^9/L
Activity (Mus musculus [34]): Non-toxic
IC50 [35]: 267 µM
IC50 [36]: > 500 µM
Activity (PTK1 [37]): Active
IC50 [38]: > 500 µM
LD10 (Rattus norvegicus [39]): > 80 mg/kg
Activity (Rattus norvegicus [40]): Non-toxic
Activity (Mus musculus [41]): 1.4 10^9/L
Activity (Mus musculus [42]): Non-toxic
Activity (Mus musculus [43]): 1.7 10^9/L
IC50 [44]: 61 µM
Activity (Mus musculus [45]): 4.3 10^9/L
Activity (U-373MG ATCC): Active
Activity (Mus musculus [46]): Non-toxic
